Assay type in all cases: functional, organism-based
The subject of experiment [1] is Human adenovirus D37. Description: Inhibition of 35S-labeled Human adenovirus 37 1477 virion binding to human HCE cells at 1:9 compound to PDA ratio formulation prepared by extrusion method after 1 hr by scintillation counting. As to conditions: Human mastadenovirus D, 1477, HCE.
Experiment [2] deals with Human adenovirus D37. Description: Inhibition of 35S-labeled Human adenovirus 37 1477 virion binding to human HCE cells at 1:9 compound to PDA ratio formulation prepared by probe sonication method after 1 hr by scintillation counting. As to conditions: Human mastadenovirus D, 1477, HCE.
The test system of experiment [3] is Human adenovirus D37. Description: Inhibition of 35S-labeled Human adenovirus 37 1477 virion binding to human HCE cells at 0.1:9.9 compound to PDA ratio formulation prepared by probe sonication method after 1 hr by scintillation counting. The note with it: Human mastadenovirus D, 1477, HCE.
Experiment [4] concerns Human adenovirus D37. Put plainly: Inhibition of 35S-labeled Human adenovirus 37 1477 virion binding to human HCE cells at 0.5:9.5 compound to PDA ratio formulation prepared by probe sonication method after 1 hr by scintillation counting. As to conditions: Human mastadenovirus D, 1477, HCE.
Experiment [5] deals with Human adenovirus D37. Description: Inhibition of 35S-labeled Human adenovirus 37 1477 virion binding to human HCE cells at 2:8 compound to PDA ratio formulation prepared by extrusion method after 1 hr by scintillation counting. As to conditions: Human mastadenovirus D, 1477, HCE.
The subject of experiment [6] is Human adenovirus D37. Description: Antiviral activity against Human adenovirus 37 1477 in human HCE cells assessed as inhibition of viral infection to host cells after 44 hrs by immunofluorescence microscopic analysis. As to conditions: Human mastadenovirus D, 1477, HCE.
Experiment [7] deals with Human adenovirus D37. Put plainly: Induction of 35S-labeled Human adenovirus 37 1477 aggregation by liquid scintillation counting.
Experiment [8] relates to Human adenovirus D37. Description: Induction of Human adenovirus 37 1477 aggregation by negative staining transmission electron microscopy.

Calls of active or inactive are those of the source. No cut-off for these calls is given here.

Broadly, the IC50 is the midpoint of a concentration-inhibition curve. As for `CCCCCCCCCCCCCCCCCC(=O)NCCOCCOCCOCCOCCOCCC(=O)NCCCCCO[C@]1(C(=O)O)C[C@H](O)[C@@H](NC(C)=O)[C@H]([C@H](O)[C@H](O)CO)O1`, in the experiment on Human adenovirus D37 [1], the IC50 was greater than 50 µM.
With `CCCCCCCCCCCCCCCCCCCCCCCC(=O)NCCOCCOCCOCCOCCOCCC(=O)NCCCCCO[C@]1(C(=O)O)C[C@H](O)[C@@H](NC(C)=O)[C@H]([C@H](O)[C@H](O)CO)O1`, the IC50 in the experiment on Human adenovirus D37 [1] came to 21 µM.
Same read-out and setting: the same measure for `CCCCCCCCCCCCC#CC#CCCCCCCCCC(=O)NCCOCCOCCOCCOCCOCCOCCOCCOCCOCCOCCOCCOCCC(=O)NCCCCCO[C@]1(C(=O)O)C[C@H](O)[C@@H](NC(C)=O)[C@H]([C@H](O)[C@H](O)CO)O1`: 7 µM.
Turning to `CCCCCCCCCCCCC#CC#CCCCCCCCCC(=O)NCCOCCOCCOCCOCCOCCC(=O)NCCCCCO[C@]1(C(=O)O)C[C@H](O)[C@@H](NC(C)=O)[C@H]([C@H](O)[C@H](O)CO)O1`, the IC50 in the experiment with Human adenovirus D37 [2] was 0.9 µM; in the experiment on Human adenovirus D37 [3] it was greater than 5 µM; in the experiment on Human adenovirus D37 [4], less than 25 µM; with Human adenovirus D37 [5], 26 µM; in the experiment on Human adenovirus D37 [1] it was 4 µM; in the experiment on Human adenovirus D37 [6], 0.7 µM. Also, the outcome with Human adenovirus D37 [7] and in the experiment with Human adenovirus D37 [8] was Active.
Turning to `CCCCCCCCCCCCC#CC#CCCCCCCCCC(=O)NCCOCCOCCOCCC(=O)NCCCCCO[C@]1(C(=O)O)C[C@H](O)[C@@H](NC(C)=O)[C@H]([C@H](O)[C@H](O)CO)O1`, in the experiment on Human adenovirus D37 [1], the IC50 was greater than 50 µM.

Values taken from ChEMBL document CHEMBL1914321, “Molecular wipes: application to epidemic keratoconjuctivitis” (J Med Chem, 2011).
